In patent publication US12568972B2, “Pyridazinol compounds and derivatives, preparation methods, herbicidal compositions and applications thereof” (Qingdao Kingagroot Chemical Compound Co., Ltd., priority 2018, dated 2026):

tested on: Veronica polita; assay: Post-emergence test, weed control effect; assay type: in vivo; details: Dose 3000 g/ha, after 3 weeks
How it was run: (§1)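 Weeds sown in soil-filled pots and sprayed at 2-3 leaf stage (2-3 weeks after sowing) with compound in acetone/Tween-80/water plus 80% vegetable oil methyl ester synergist at 1500 g/ha. After 3 weeks in the greenhouse, fresh-weight growth inhibition scored on a 0-10 scale (10 = completely dead).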

Structure (SMILES)	weed control effect, Veronica polita (activity level)	weed control effect (activity level), Veronica polita
O=C(Oc1cc(C(F)(F)F)nnc1-c1ccc(C(F)(F)F)cc1)c1cccs1 [Compound 1-106]	10	–
CCCCCC(=O)Oc1cc(C(F)(F)F)nnc1-c1ccc(C#N)cc1 [Compound 1-10]	10	–
Cc1cc(C(=O)Oc2cc(C(F)(F)F)nnc2-c2ccc(F)c(F)c2)no1 [Compound 1-107]	10	–
Oc1cc(C(F)(F)F)nnc1-c1ccnn1CC(F)(F)F [Compound 831]	–	10
CCCCCCOC(=S)Oc1cc(C(F)(F)F)nnc1-c1ccc(Cl)c(Cl)c1Cl [Compound 1-160]	10	–
Cn1ncc(Br)c1-c1nnc(C(F)(F)F)cc1O [Compound 806]	–	10
CCCCCCCOC(=O)Oc1cc(C(F)(F)F)nnc1-c1ccc(Cl)c(Cl)c1Cl [Compound 1-38]	10	–
CN1CCN(S(=O)(=O)Oc2cc(C(F)(F)F)nnc2-c2ccc(F)cc2)CC1 [Compound 1-125]	10	–
O=C(Oc1cc(C(F)(F)F)nnc1-c1ccc(C(F)(F)F)cc1)c1cccc(OC(F)(F)F)c1 [Compound 1-88]	10	–

same assay, conditions: dose 1000 g/ha, after 3 weeks

Structure (SMILES)	weed control effect (activity level), Veronica polita
COc1c(C)ccc(F)c1-c1nnc(C(F)(F)F)cc1O [Compound 62]	10
Oc1cc(C(F)(F)F)nnc1-c1cccc(Cl)c1Cl [Compound 42]	10
Oc1cc(C(F)(F)F)nnc1-c1cc(C(F)(F)F)ccc1F [Compound 50]	10
Oc1cc(C(F)(F)F)nnc1-c1ccc(F)cc1F [Compound 732]	10
Cc1cc(-c2nnc(C(F)(F)F)cc2O)ccc1Cl [Compound 72]	10
Cc1ccc(-c2nnc(C(F)(F)F)cc2O)c(F)c1 [Compound 59]	10
Oc1cc(C(F)(F)F)nnc1-c1cccc(I)c1 [Compound 29]	10

same assay, conditions: dose 2000 g/ha, after 3 weeks

Structure (SMILES)	weed control effect (activity level), Veronica polita
Oc1cc(C(F)(F)F)nnc1-c1cc(Cl)nc(Cl)c1 [Compound 218]	10
Oc1cc(C(F)(F)F)nnc1-c1cc(F)cc(/C=C/Cl)c1 [Compound 169]	10

tested on: Amaranthus retroflexus; assay: Post-emergence test, weed control effect; assay type: in vivo; details: Dose 3000 g/ha, after 3 weeks
How it was run: as §1

Structure (SMILES)	weed control effect, Amaranthus retroflexus (activity level)	weed control effect (activity level), Amaranthus retroflexus
O=C(Oc1cc(C(F)(F)F)nnc1-c1ccc(C(F)(F)F)cc1)c1cccs1 [Compound 1-106]	10	–
CCCCCC(=O)Oc1cc(C(F)(F)F)nnc1-c1ccc(C#N)cc1 [Compound 1-10]	10	–
Cc1cc(C(=O)Oc2cc(C(F)(F)F)nnc2-c2ccc(F)c(F)c2)no1 [Compound 1-107]	10	–
Oc1cc(C(F)(F)F)nnc1-c1ccnn1CC(F)(F)F [Compound 831]	–	10
CCCCCCOC(=S)Oc1cc(C(F)(F)F)nnc1-c1ccc(Cl)c(Cl)c1Cl [Compound 1-160]	10	–
Cn1ncc(Br)c1-c1nnc(C(F)(F)F)cc1O [Compound 806]	–	10
CCCCCCCOC(=O)Oc1cc(C(F)(F)F)nnc1-c1ccc(Cl)c(Cl)c1Cl [Compound 1-38]	10	–
CN1CCN(S(=O)(=O)Oc2cc(C(F)(F)F)nnc2-c2ccc(F)cc2)CC1 [Compound 1-125]	10	–
O=C(Oc1cc(C(F)(F)F)nnc1-c1ccc(C(F)(F)F)cc1)c1cccc(OC(F)(F)F)c1 [Compound 1-88]	10	–

same assay, conditions: dose 1000 g/ha, after 3 weeks

Structure (SMILES)	weed control effect (activity level), Amaranthus retroflexus
COc1c(C)ccc(F)c1-c1nnc(C(F)(F)F)cc1O [Compound 62]	10
Oc1cc(C(F)(F)F)nnc1-c1cccc(Cl)c1Cl [Compound 42]	10
Oc1cc(C(F)(F)F)nnc1-c1cc(C(F)(F)F)ccc1F [Compound 50]	10
Oc1cc(C(F)(F)F)nnc1-c1ccc(F)cc1F [Compound 732]	10
Cc1cc(-c2nnc(C(F)(F)F)cc2O)ccc1Cl [Compound 72]	10
Cc1ccc(-c2nnc(C(F)(F)F)cc2O)c(F)c1 [Compound 59]	10
Oc1cc(C(F)(F)F)nnc1-c1cccc(I)c1 [Compound 29]	10

same assay, conditions: dose 2000 g/ha, after 3 weeks

Structure (SMILES)	weed control effect (activity level), Amaranthus retroflexus
Oc1cc(C(F)(F)F)nnc1-c1cc(Cl)nc(Cl)c1 [Compound 218]	10
Oc1cc(C(F)(F)F)nnc1-c1cc(F)cc(/C=C/Cl)c1 [Compound 169]	10

tested on: Chenopodiaceae; assay: Post-emergence test, weed control effect; assay type: in vivo; details: Dose 3000 g/ha, after 3 weeks
How it was run: as §1

Structure (SMILES)	weed control effect, Chenopodiaceae (activity level)	weed control effect (activity level), Chenopodiaceae
O=C(Oc1cc(C(F)(F)F)nnc1-c1ccc(C(F)(F)F)cc1)c1cccs1 [Compound 1-106]	10	–
CCCCCC(=O)Oc1cc(C(F)(F)F)nnc1-c1ccc(C#N)cc1 [Compound 1-10]	10	–
Cc1cc(C(=O)Oc2cc(C(F)(F)F)nnc2-c2ccc(F)c(F)c2)no1 [Compound 1-107]	10	–
Oc1cc(C(F)(F)F)nnc1-c1ccnn1CC(F)(F)F [Compound 831]	–	10
CCCCCCOC(=S)Oc1cc(C(F)(F)F)nnc1-c1ccc(Cl)c(Cl)c1Cl [Compound 1-160]	10	–
Cn1ncc(Br)c1-c1nnc(C(F)(F)F)cc1O [Compound 806]	–	10
CCCCCCCOC(=O)Oc1cc(C(F)(F)F)nnc1-c1ccc(Cl)c(Cl)c1Cl [Compound 1-38]	10	–
CN1CCN(S(=O)(=O)Oc2cc(C(F)(F)F)nnc2-c2ccc(F)cc2)CC1 [Compound 1-125]	10	–
O=C(Oc1cc(C(F)(F)F)nnc1-c1ccc(C(F)(F)F)cc1)c1cccc(OC(F)(F)F)c1 [Compound 1-88]	10	–

same assay, conditions: dose 1000 g/ha, after 3 weeks

Structure (SMILES)	weed control effect (activity level), Chenopodiaceae
COc1c(C)ccc(F)c1-c1nnc(C(F)(F)F)cc1O [Compound 62]	10
Oc1cc(C(F)(F)F)nnc1-c1cccc(Cl)c1Cl [Compound 42]	10
Oc1cc(C(F)(F)F)nnc1-c1cc(C(F)(F)F)ccc1F [Compound 50]	10
Oc1cc(C(F)(F)F)nnc1-c1ccc(F)cc1F [Compound 732]	10
Cc1cc(-c2nnc(C(F)(F)F)cc2O)ccc1Cl [Compound 72]	10
Cc1ccc(-c2nnc(C(F)(F)F)cc2O)c(F)c1 [Compound 59]	10
Oc1cc(C(F)(F)F)nnc1-c1cccc(I)c1 [Compound 29]	10

same assay, conditions: dose 2000 g/ha, after 3 weeks

Structure (SMILES)	weed control effect (activity level), Chenopodiaceae
Oc1cc(C(F)(F)F)nnc1-c1cc(Cl)nc(Cl)c1 [Compound 218]	10
Oc1cc(C(F)(F)F)nnc1-c1cc(F)cc(/C=C/Cl)c1 [Compound 169]	10

tested on: Rorippa indica; assay: Post-emergence test, weed control effect; assay type: in vivo; details: Dose 3000 g/ha, after 3 weeks
How it was run: as §1

Structure (SMILES)	weed control effect, Rorippa indica (activity level)	weed control effect (activity level), Rorippa indica
O=C(Oc1cc(C(F)(F)F)nnc1-c1ccc(C(F)(F)F)cc1)c1cccs1 [Compound 1-106]	10	–
CCCCCC(=O)Oc1cc(C(F)(F)F)nnc1-c1ccc(C#N)cc1 [Compound 1-10]	10	–
Cc1cc(C(=O)Oc2cc(C(F)(F)F)nnc2-c2ccc(F)c(F)c2)no1 [Compound 1-107]	10	–
Oc1cc(C(F)(F)F)nnc1-c1ccnn1CC(F)(F)F [Compound 831]	–	10
CCCCCCOC(=S)Oc1cc(C(F)(F)F)nnc1-c1ccc(Cl)c(Cl)c1Cl [Compound 1-160]	10	–
Cn1ncc(Br)c1-c1nnc(C(F)(F)F)cc1O [Compound 806]	–	10
CCCCCCCOC(=O)Oc1cc(C(F)(F)F)nnc1-c1ccc(Cl)c(Cl)c1Cl [Compound 1-38]	10	–
CN1CCN(S(=O)(=O)Oc2cc(C(F)(F)F)nnc2-c2ccc(F)cc2)CC1 [Compound 1-125]	10	–
O=C(Oc1cc(C(F)(F)F)nnc1-c1ccc(C(F)(F)F)cc1)c1cccc(OC(F)(F)F)c1 [Compound 1-88]	10	–

same assay, conditions: dose 1000 g/ha, after 3 weeks

Structure (SMILES)	weed control effect (activity level), Rorippa indica
COc1c(C)ccc(F)c1-c1nnc(C(F)(F)F)cc1O [Compound 62]	10
Oc1cc(C(F)(F)F)nnc1-c1cccc(Cl)c1Cl [Compound 42]	10
Oc1cc(C(F)(F)F)nnc1-c1cc(C(F)(F)F)ccc1F [Compound 50]	10
Oc1cc(C(F)(F)F)nnc1-c1ccc(F)cc1F [Compound 732]	10
Cc1cc(-c2nnc(C(F)(F)F)cc2O)ccc1Cl [Compound 72]	10
Cc1ccc(-c2nnc(C(F)(F)F)cc2O)c(F)c1 [Compound 59]	10
Oc1cc(C(F)(F)F)nnc1-c1cccc(I)c1 [Compound 29]	10

same assay, conditions: dose 2000 g/ha, after 3 weeks

Structure (SMILES)	weed control effect (activity level), Rorippa indica
Oc1cc(C(F)(F)F)nnc1-c1cc(Cl)nc(Cl)c1 [Compound 218]	10
Oc1cc(C(F)(F)F)nnc1-c1cc(F)cc(/C=C/Cl)c1 [Compound 169]	10
